The target in the test is HT1080 cells stably expressing the GFP2-RLuc8 fusion protein (Renilla reniformis, UniProt P27652, A143M/A55T/C124A/K136R/M185V/M253L/S130A/S287L). The settings on record: for signal half-life (time required for the initial light flux to fall to its half-value): HT1080 GFP2-RLuc8 cells, 60 μM derivatives; for intensity of the light signal among the four derivatives: FIG. 3A. As for the experimental part:
The kinetics of the bioluminescent reactions was evaluated by exposing the derivatives to HT1080 cells stably expressing the GFP2-RLuc8 fusion protein and detecting generated light over the course of one hour using cooled charge coupled device camera (FIG. 2).
Human fibrosracoma cell line HT1080 stably expressing GFP2-RLuc8 fusion protein was grown in Dulbecco's modified Eagle high glucose medium (DMEM, Invitrogen, Carlsbad, Calif.) supplemented with 10% fetal bovine serum (FBS), 1% penicillin-streptomycin and 500 μg/mL Zeocin™ (Invitrogen). One day before the luminescence study, 10 000 cells were plated in the 96 well plates (Corning Incorporated, Lowell, Mass.). After the removal of the medium 100 μL of the 5 μM solution of BDC in PBS and 60 μM solution of BDC derivatives in DMSO were added and luminescence measured every five minutes during one hour using an open filter setting. The acquisition time was 10 sec. Images were acquired using a cooled charged-coupled device (CCD) camera IVIS 50 (Caliper Life Sciences, Hopkinton, Mass.) and analyzed using Living Image® software version 2.50.1 (Caliper Life Sciences, Hopkinton, Mass.). Region of interest were drawn, and maximum radiance used as the measure of luminescence. The measurements were done in triplicates.

Read-outs that look alike come from different tables or passages of the source.

Chain of HT1080 cells stably expressing the GFP2-RLuc8 fusion protein (P27652 whole entry A55T/C124A/S130A/K136R/A143M/M185V/M253L/S287L, the tested form may be a part): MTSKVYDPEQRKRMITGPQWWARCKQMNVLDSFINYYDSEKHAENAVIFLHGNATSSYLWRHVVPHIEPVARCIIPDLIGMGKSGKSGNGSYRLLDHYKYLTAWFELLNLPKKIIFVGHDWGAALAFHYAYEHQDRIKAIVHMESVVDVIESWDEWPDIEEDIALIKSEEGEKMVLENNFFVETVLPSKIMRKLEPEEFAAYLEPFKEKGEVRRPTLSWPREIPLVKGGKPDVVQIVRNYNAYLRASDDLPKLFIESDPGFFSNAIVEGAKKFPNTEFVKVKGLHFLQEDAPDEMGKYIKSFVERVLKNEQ

In the case of “acetoxymethyl-bisdeoxycoelenterazine [compound 9]”, the “delay of the emergence of the maximum light signal compared to the parent BDC” value was found to be 5 min and the “signal half-life (time required for the initial light flux to fall to its half-value)” value (“signal half-life” below) is “over one”. The “rate of the bioluminescent reaction / light signal decay (in words)” value (over one hour) is on record as “slower bioluminescent reactions compared to their ester counterparts”. Moreover, under “over one hour, listed as acetoxymethyl-BDC”, the “rate of the bioluminescent reaction / light signal decay (in words)” value is “slowly decayed with time”.

Regarding “acetyl-bisdeoxycoelenterazine [compound 7]”, the “intensity of the light signal among the four derivatives” value is listed as “highest light signal”. In addition, for the setting “over one hour”, the “rate of the bioluminescent reaction / light signal decay (in words)” value is on record as “fast light signal decay, similar to BDC”.

Turning to `O=c1c(Cc2ccccc2)nc2c(Cc3ccccc3)[nH]c(-c3ccccc3)cn1-2` [BDC, bisdeoxycoelenterazine], under “5 μM BDC”, the “signal half-life” value stood at 5 min. The “loss of initial light emission” value (at the 15 minute time point) was roughly 75%.

For `CC(C)(C)OC(=O)Oc1c(Cc2ccccc2)nc2c(Cc3ccccc3)nc(-c3ccccc3)cn12` [compound 8, O-Boc-bisdeoxycoelenterazine], the “time of peak light emission after exposure to the RLUC8 expressing cells” value was 15 min. Moreover, where the note is “5 μM BDC”, the “signal half-life” value was roughly 50 min. The “rate of the bioluminescent reaction / light signal decay (in words)” value (over one hour) is given as “remained fairly stable over one hour”.

Consider “pivaloyloxymethyl-bisdeoxycoelenterazine [compound 10]”, for which the “intensity of the light signal among the four derivatives” value is given as “lowest” and the “signal half-life” value is reported as “over one”. The “observable signal 24 hours after exposure to the enzyme” value (24 hours, FIG. 3B) is on record as “the only observable signal 24 hours after exposure to the enzyme came from it”. For the setting “over one hour”, the “light signal as share of the maximum intensity (lowest value reached)” value was no less than 88% and the “rate of the bioluminescent reaction / light signal decay (in words)” value is reported as “slower bioluminescent reactions compared to their ester counterparts”. In addition, the “rate of the bioluminescent reaction / light signal decay (in words)” value (over one hour, listed as pivaloyloxymethyl-BDC) is given as “slowest bioluminescent reaction”.

The values above are taken from US20090075309A1, “Bisdeoxycoelenterazine derivatives, methods of use, and BRET2 systems” (priority 2007, published 2009).
